What was measured:
[1] = tested on: γH2AX foci per nucleus in mouse submandibular gland; test: In vivo radioprotection of mouse salivary gland: γH2AX foci per nucleus (IHC) 48 hours after 15 Gy, retroductal injection
Procedure: Female SKH1 hairless mice, backcrossed 6 generations with C57BL/6J mice, aged 6-12 weeks were used in this study for in vitro assay development and drug discovery. Female C57BL/6J mice age 6-8 weeks were used for in vivo validation studies. […] Animals were maintained on a 12 hr light/dark cycle and group-housed with food and water available ad libitum.
Briefly, 6-10 week old female C57Bl/6 J mice were anesthetized by intraperitoneal injection of sterile saline solution of 100 mg/kg ketamine and 10 mg/kg xylazine. Maxillary incisors were secured over a metal beam, while an elastic band provided tension from behind the mandibular incisors. The mouth was widened using a custom steel retractor to apply pressure to the buccal mucosa and the tongue was retracted and cotton placed in the oral cavity. The wire inset of a 32 G intracranial catheter was cut at […] to create a bevel. The beveled wire created a shallow puncture in the left salivary papilla. A beveled catheter section containing the wire insert for support was gently inserted into the puncture site. The catheter was removed, and 1 mg/kg atropine was administered by intraperitoneal injection. After 10 min, the needle of a Hamilton syringe, loaded with vehicle or drug solution, was inserted into the catheter, and the catheter was inserted into the orifice produced in the papilla. Drug solutions were injected by hand at 10 μl/min at a volume of 1 μl/g of body weight. Following injection, the pressure was maintained on the syringe for 1 min to ensure material retention before removal of the catheter.
The head and neck region was positioned over the slit of a custom collimator, which allowed body shielding.
Submandibular glands and SGm were isolated and fixed in 4% paraformaldehyde overnight at 4 °C. Tissues were paraffin-embedded and then cut into […] sections. […] Permeabilization was performed with 0.5% Triton X-100 in PBS for 5 minutes. […] Following a PBS rinse, […] DAPI (Invitrogen, Carlsbad, CA) in PBS was applied to sections for 5 minutes. Sections were washed thrice in PBS for 5 minutes and the slides were mounted using Immu-Mount mounting medium (Thermo). Microscopic images were acquired using a Leica TCS SP5 confocal microscope with a 100× oil immersion objective and Argon laser. Analysis of images was performed in ImageJ.

[2] = tested on: Reduced glutathione in salivary gland cell clusters (SGm); test: Glutathione assay in salivary gland tissue chip, 4 days post-radiation (15 Gy); also first screen of Selleck library at 100 μM; type: cell-based, mouse; conditions: for Estimated EC50, Glutathione: nonlinear fit in Prism of dose response curves; for prevention of radiation-induced reduction of glutathione levels: 4 days post-radiation; as to Glutathione (radioprotection): key: +: radioprotection; ~: partial radioprotection; —: no radioprotection
In short: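 Mouse submandibular gland cell clusters (20–100 μm) in PEG hydrogel on microbubble chips, cultured 4 days to form SGm, then dosed 30 min before and during 15 Gy irradiation and washed out 30 min after. Glutathione measured 4 days post-radiation; library compounds screened at 100 μM, hits matching 0 Gy levels.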

[3] = phenylbutazone 50 mg/kg, corn oil

## CCn1cc(C(=O)O)c(=O)c2cc(F)c(N3CCNCC3)nc21 [Enoxacin (Penetrex)]
[1]; enoxacin 0.3 mg/kg
  reduction in γH2AX foci per nucleus compared to 15 Gy controls: 0.5 fold
[1]; enoxacin 0.3 mg/kg, comparator not given
  increase in γH2AX foci per nucleus: 1.6 fold
[2]; dose response, 15 Gy
  radioprotection in dose response, glutathione assay: protection only at higher concentrations
[2]; 15 Gy
  Estimated EC50, Glutathione: 2.4 µM

## CCCCC1C(=O)N(c2ccccc2)N(c2ccccc2)C1=O [Phenylbutazone]
[1]; [3]
  reduction in γH2AX foci per nucleus compared to 15 Gy controls: 0.4 fold
  γH2AX foci per nucleus versus 0 Gy controls: not significantly different from 0 Gy controls
[2]; dose response, 15 Gy
  concentration range of radioprotection, glutathione assay: 0.1 to 100 µM
[2]; 15 Gy
  Estimated EC50, Glutathione: 0.08 µM

## NCCCNCCS [WR-1065]
[1]; WR-1065 50 mg/kg
  reduction in γH2AX foci per nucleus compared to 15 Gy controls: 0.5 fold
  γH2AX foci per nucleus versus 0 Gy controls: No significant differences
[2]; 0.1 mM, 15 Gy
  prevention of radiation-induced reduction of glutathione levels: ineffective
[2]; 0.4 mM, 15 Gy
  prevention of radiation-induced reduction of glutathione levels: ineffective
[2]; 1 mM
  Glutathione (radioprotection): +
[2]; 1 mM, 15 Gy
  prevention of radiation-induced reduction of glutathione levels: significant protection
[2]; 4 mM
  Glutathione (radioprotection): +
[2]; 4 mM, 15 Gy
  prevention of radiation-induced reduction of glutathione levels: significant protection

## Doripenem hydrate
[1]; doripenem hydrate 26 mg/kg
  increase in γH2AX foci per nucleus compared to 0 Gy controls: 2.7 fold
  reduction of γH2AX foci per nucleus relative to 15 Gy controls: did not reduce
[2]; dose response, 15 Gy
  radioprotection in dose response, glutathione assay: protection only at higher concentrations
[2]; 15 Gy
  Estimated EC50, Glutathione: 8.6 µM

Source: patent US20260345555A1, “Compositions and Methods for Protecting Salivary Glands from Off-Target Radiation Damage” (University of Rochester, priority 2022, published 2026)
